Results on 36 compounds are retold here after patent publication US20240002388A1, “PYRIMIDINONE COMPOUNDS AND USES THEREOF” (HUTCHISON MEDIPHARMA LIMITED, priority 2020, published 2024).

pIC50: −log10 of the molar value.

This assay concerns L929 cell line (mouse fibroblastoma cell line). The experiment in a line: L929 cell viability assay (mTNF-α + Z-VAD-FMK induced necroptosis). The assay is classed as cell-based. The note with it: Mus musculus, L929, 20 h, L929 cells, mTNF-α 0.1 μg/mL + Z-VAD-FMK 5 μM, CellTiter-Glo. As for the experimental part:
L929 cell line (mouse fibroblastoma cell line): purchased from ATCC (American Type Culture Collection) Cell Bank, cultured in 5% CO2, 37° C. incubator, and MEM medium which contains L-Glutamine, with 10% FBS was used. • MEM medium: GIBCO, Cat #11095080; • Fetal bovine serum (FBS): GIBCO, Cat #10099-141C; • Dimethyl sulfoxide (DMSO): Sigma, Cat #D2650; • 0.25% Trypsin-EDTA: GIBCO, Cat #25200072; • Recombinant Mouse TNF-alpha Protein (mTNF-α): R&D system, Cat #410-MT-050; • Pan-Caspase inhibitor (Z-VAD-FMK): Selleckchem, Cat #S7023; • CellTiter-Glo 2.0 Cell Viability Assay kit: Promega, Cat #G9242; • Microwell plate reader: Envision, Perkin Elmer; • 96-well plate: Corning, Cat #3917.
The L929 cells at the logarithmic phase were taken out, and the supernatant was discarded. After trypsinization and cell shedding, 10% FBS-containing medium was added for neutralization, and the supernatant was discarded after centrifugation. The cells were re-suspended using 10% FBS-containing medium, adjusted to 7×10^4 cells/ml, added to 96-well microplate at 70 μL/well, i.e., 4.9×10^3 cells/well. Then the plate was incubated in a 5% CO2, 37° C. cell incubator overnight.
After incubating overnight, the 96-well plate was taken out, the medium was discarded, and the plate was washed with 1% FBS-containing MEM medium. Then 1% FBS-containing MEM medium was added at 70 μL/well, and the plate was cultured in a 5% CO2, 37° C. cell incubator. After incubating for 1 hour, the test compound was diluted to the corresponding concentrations using DMSO with 3-fold serial dilution, then the corresponding concentration of DMSO diluted solution was diluted into 1% FBS-containing MEM medium, and 10 μL/well of the diluted test compound with different concentrations (final concentrations of test compound were 10, 3.33, 1.11, 0.37, 0.12, 0.04, 0.014 and 0.005 μM, while final concentration of DMSO was 0.3%) or 10 μL/well control solution (3% DMSO) were added to the cell culture system respectively, with the total volume being 80 μL/well. Then 10 μL of Z-VAD-FMK solution diluted with 1% FBS-containing MEM medium (final concentration of 5 μM) or 10 μL of control solution (2.5% DMSO) was added to each well, with the total volume being 90 μL/well. The plate was incubated in a 5% CO2, 37° C. cell culture incubator for 1 hour.
After incubating for 1 hour, 10 μL of recombinant mouse TNF-α protein solution diluted with 1% FBS-containing MEM medium (final concentration of 0.1 μg/mL) or 10 μL control solution (1% FBS-containing MEM medium) was added to each well. The plate was incubated in a 5% CO2, 37° C. cell culture incubator for 20 hours.
The cell culture plate was taken out from the incubator, and left to stand at room temperature for 30 minutes. Meanwhile, CellTiter-Glo viability assay kit was put from freezer to room temperature, and 50 μL of CellTiter-Glo reagent was added to all wells, the plate was shaken for 1 minutes, protected from light at room temperature for 10 minutes then read the plate on Envision to get the luminescence signal.
The 96-well plate in the dark was taken out, and the chemiluminescence was determined using the Envision microwell plate reader as the signal value of each well.
The mean signal value of the wells of the mixed solution of recombinant mouse TNF-alpha protein (final concentration of 0.1 μg/mL) and Pan-Caspase inhibitor (final concentration of 5 μM) was used as the lower value, and the mean signal value of the wells without stimulation was used as the upper value. According to the signal value of each well, the inhibition rate of each concentration of every compound was calculated, and the IC50 value of compound was obtained by Model 205 in XL-Fit 5.3 software (ID Business Solutions Limited).
Inhibition rate %=[(Luminescence readout of treated compound−Luminescence readout of positive control)/(Luminescence readout of negative control−Luminescence readout of positive control)]×100%, wherein
In general terms: ATP-based viability assays read luminescence as a measure of living cells.
As usually defined, the pIC50 is −log10 of the IC50, conventionally taken in molar units. Turning to `CC(C)n1cncc(-c2ccc(C3(NC(=O)c4ncc5cnn(C(C)C6CC6)c5n4)CC3)cc2)c1=O` (racemic) [Compound 59, 1-(1-cyclopropylethyl)-N-(1-(4-(1-i-propyl-6-oxo-1,6-dihydropyrimidin-5-yl)phenyl)cyclopropyl)-1H-pyrazolo[3,4-d]pyrimidine-6-carboxamide], the negative logarithm of the IC50 (pIC50) is 7.77. For `CC(C)n1ncc2cnc(C(=O)NC3(c4ccc(-c5cncn([C@H](C)C(F)(F)F)c5=O)cc4F)CC3)nc21` (stereo in doubt) [Compound 46], the pIC50 is 7.72. Take `CC(C)n1ncc2cnc(C(=O)NC3(c4ccc(-c5cncn([C@@H](C)C(F)(F)F)c5=O)cc4F)CC3)nc21` (stereo in doubt) [Compound 47]: the pIC50 was 7.62. Take `CC(C)n1ncc2cnc(C(=O)NC3(c4ccc(-c5cncn(C6CCOC6)c5=O)cc4)CC3)nc21` (stereo in doubt) [Compound 80, (R)-1-i-propyl-N-(1-(4-(6-oxo-1-(tetrahydrofuran-3-yl)-1,6-dihydropyrimidin-5-yl)phenyl)cyclopropyl)-1H-pyrazolo[3,4-d]pyrimidine-6-carboxamide]: the pIC50 was 6.53. Take `CC(C)n1ncc2cnc(C(=O)NC3(c4ccc(-c5cncn(C6CCOC6)c5=O)cc4)CC3)nc21` (stereo in doubt) [Compound 81, (S)-1-i-propyl-N-(1-(4-(6-oxo-1-(tetrahydrofuran-3-yl)-1,6-dihydropyrimidin-5-yl)phenyl)cyclopropyl)-1H-pyrazolo[3,4-d]pyrimidine-6-carboxamide]: the pIC50 is 6.59.

In the case of `CC(C#N)n1cncc(-c2ccc(C3(NC(=O)c4ncc5cnn(C(C)C)c5n4)CC3)cc2)c1=O` (stereo in doubt) [Compound 82, (R)—N-(1-(4-(1-(1-cyanoethyl)-6-oxo-1,6-dihydropyrimidin-5-yl)phenyl)cyclopropyl)-1-i-propyl-1H-pyrazolo[3,4-d]pyrimidine-6-carboxamide], the pIC50 is 6.44.

With `CC(C#N)n1cncc(-c2ccc(C3(NC(=O)c4ncc5cnn(C(C)C)c5n4)CC3)cc2)c1=O` (stereo in doubt) [Compound 83, (S)—N-(1-(4-(1-(1-cyanoethyl)-6-oxo-1,6-dihydropyrimidin-5-yl)phenyl)cyclopropyl)-1-i-propyl-1H-pyrazolo[3,4-d]pyrimidine-6-carboxamide], the pIC50 is 6.70. Regarding `CC(C)n1ncc2cnc(C(=O)NC3(c4ccc(-c5cncn(C)c5=O)cc4)CC3)nc21` [Compound 1, 1-isopropyl-N-(1-(4-(1-methyl-6-oxo-1,6-dihydropyrimidin-5-yl)phenyl)cyclopropyl)-1H-pyrazolo[3,4-d]pyrimidine-6-carboxamide], the pIC50 was 5.90. With `CC(C)n1ncc2cnc(C(=O)NC3(c4ccc(-c5cncn(C)c5=O)cn4)CC3)nc21` [Compound 2], the pIC50 is 5.13. With `Cn1cncc(-c2ccc(C3(NC(=O)c4nnc(Cc5ccccc5)[nH]4)CC3)cc2)c1=O` [Compound 3], the pIC50 is 5.37.

On to `Cn1cncc(-c2ccc(C3(NC(=O)c4ncc5cnn(-c6ccccc6)c5n4)CC3)cc2)c1=O` [Compound 4], for which the pIC50 was 6.14. With `Cn1cncc(-c2ccc(C3(NC(=O)c4cc(Cc5ccccc5)on4)CC3)cc2)c1=O` [Compound 5], the pIC50 was 5.60. With `CC(C)Cc1nc(C(=O)NC2(c3ccc(-c4cncn(C)c4=O)cc3)CC2)ncc1Cl` [Compound 6], the pIC50 was 6.52.

In the case of `Cn1cncc(-c2ccc(C3(NC(=O)c4ncn(Cc5ccccc5)n4)CC3)cc2)c1=O` [Compound 8], the pIC50 was 5.75. Turning to `Cn1cncc(-c2ccc(C3(NC(=O)c4noc(Cc5ccccc5)n4)CC3)cc2)c1=O` [Compound 9], the pIC50 was 5.55.

With `Cn1cncc(-c2ccc(C3(NC(=O)c4ncc(Cc5ccccc5)o4)CC3)cc2)c1=O` [Compound 10], the pIC50 is 6.17. In the case of `Cn1cncc(-c2ccc(C3(NC(=O)c4nnc(Cc5ccccc5)o4)CC3)cc2)c1=O` [Compound 11], the pIC50 is 5.04. Consider `CC(C)n1ncc2cnc(C(=O)NC3(c4ccc(-c5cncn(C6CC6)c5=O)cc4)CC3)nc21` [Compound 12], for which the pIC50 is 5.99. `CC(C)n1cncc(-c2ccc(C3(NC(=O)c4nnc(Cc5ccccc5)o4)CC3)cc2)c1=O` [Compound 13]: the pIC50 is 6.71. Take `CC(C)n1cncc(-c2ccc(C3(NC(=O)c4nc5n(n4)[C@@H](c4ccccc4)CC5)CC3)cc2)c1=O` [Compound 15]: the pIC50 is 5.63. `CC(C)n1cncc(-c2ccc(C3(NC(=O)c4nc5n(n4)[C@H](c4ccccc4)CC5)CC3)cc2)c1=O` [Compound 16]: the pIC50 is 8.15. For the compound `CC(C)n1cncc(-c2ccc(C3(NC(=O)c4ncn(Cc5ccccc5)n4)CC3)cc2)c1=O` [Compound 17], the pIC50 is 7.60. Turning to `Cn1cncc(-c2ccc(C3(NC(=O)c4nnc(Cc5c(F)cccc5F)[nH]4)CC3)cc2)c1=O` [Compound 18], the pIC50 is 5.76. On to `CC(C)n1cncc(-c2ccc(C3(NC(=O)c4ncc5cnn(-c6ccccc6)c5n4)CC3)cc2)c1=O` [Compound 19], for which the pIC50 is 7.21.

For `CC(C)Cc1nc(C(=O)NC2(c3ccc(-c4cncn(C(C)C)c4=O)cc3)CC2)ncc1Cl` [Compound 22], the pIC50 was 7.55. On to `CC(C)n1ncc2cnc(C(=O)NC3(c4ccc(-c5cncn(C)c5=O)c(F)c4)CC3)nc21` [Compound 23, N-(1-(3-fluoro-4-(1-methyl-6-oxo-1,6-dihydropyrimidin-5-yl)phenyl)cyclopropyl)-1-isopropyl-1H-pyrazolo[3,4-d]pyrimidine-6-carboxamide], for which the pIC50 is 5.57. Consider `CC(C)n1ncc2cnc(C(=O)NC3(c4ccc(-c5cncn(C)c5=O)c(Cl)c4)CC3)nc21` [Compound 25], for which the pIC50 was 5.12. For the compound `CC(C)n1ncc2cnc(C(=O)NC3(c4ccc(-c5cncn(C)c5=O)cc4F)CC3)nc21` [Compound 26], the negative logarithm of the IC50 (pIC50) was 6.07. The result for `CC(C)n1ncc2cnc(C(=O)NC3(c4ccc(-c5cncn(C)c5=O)cc4)CC3)cc21` [Compound 28, 1-isopropyl-N-(1-(4-(1-methyl-6-oxo-1,6-dihydropyrimidin-5-yl)phenyl)cyclopropyl)-1H-pyrazolo[4,3-c]pyridine-6-carboxamide] reads 5.24; that for `CC(C)n1cncc(-c2ccc(C3(NC(=O)c4ncc5cnn(C(C)C)c5n4)CC3)cc2)c1=O` [Compound 29, 1-isopropyl-N-(1-(4-(1-isopropyl-6-oxo-1,6-dihydropyrimidin-5-yl)phenyl)cyclopropyl)-1H-pyrazolo[3,4-d]pyrimidine-6-carboxamide], 7.47; that for `CC(C)n1ncc2cnc(C(=O)NC3(c4ccc(-c5cnc(N)n(C)c5=O)cc4)CC3)nc21` [Compound 30], 5.59. On to `CC(C)n1cncc(-c2ccc(C3(NC(=O)c4ncc5cnn(C(C)C)c5n4)CC3)cc2Cl)c1=O` [Compound 33], for which the pIC50 is 6.18. For the compound `CC(C)n1cncc(-c2ccc(C3(NC(=O)c4ncc5cnn(C(C)C)c5n4)CC3)c(F)c2)c1=O` [Compound 34], the pIC50 is 7.11. On to `CC(C)n1cncc(-c2ccc(C3(NC(=O)c4ncc5cnn(C(C)C)c5n4)CC3)cc2F)c1=O` [Compound 35], for which the pIC50 is 6.81. Consider `CC(C)n1ncc2cnc(C(=O)NC3(c4ccc(-c5cncn(CC6CC6)c5=O)cc4)CC3)nc21` [Compound 36], for which the pIC50 is 7.08. Turning to `CCn1cncc(-c2ccc(C3(NC(=O)c4ncc5cnn(C(C)C)c5n4)CC3)cc2)c1=O` [Compound 37], the pIC50 is 6.73.
